# Test results published in PubChem BioAssay AID330 (DTP/NCI, 2004).
# Where “and” joins values, the source holds several entries; their conditions need not be identical. Identical values can stand only once. Inconclusive results and toxic doses are left out. Peptide text beside a SMILES is read from it.
# Test system: P388 leukemia ip, CD2F1 mice, survival T/C
# Assay: NCI In Vivo Anticancer Drug Screen. Data for tumor model P388 Leukemia (intraperitoneal) in CD2F1 (CDF1) mice
# Conditions: endpoint: median survival time, higher = longer survival
# In short: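 Mice carrying the transplanted tumor received test compound or vehicle. Survival was recorded in each group, and the value is the treated-group measurement divided by that of the vehicle-treated control group.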
# [1] = dose: 50.0 mg/kg/injection, schedule: Q01DX005 (ip), vehicle: Klucel (hydroxypropylcellulose) (HPC)
# [2] = dose: 100.0 mg/kg/injection, schedule: Q01DX005 (ip), vehicle: Klucel (hydroxypropylcellulose) (HPC)
# [3] = dose: 100.0 mg/kg/injection, schedule: Q04DX002 (ip), vehicle: saline with Tween-80
# [4] = dose: 50.0 mg/kg/injection, schedule: Q01DX009 (ip), vehicle: Klucel (hydroxypropylcellulose) (HPC)
# [5] = dose: 100.0 mg/kg/injection, schedule: Q01DX009 (ip), vehicle: Klucel (hydroxypropylcellulose) (HPC)
# [6] = dose: 200.0 mg/kg/injection, schedule: Q01DX009 (ip), vehicle: Klucel (hydroxypropylcellulose) (HPC)
# [7] = dose: 60.0 mg/kg/injection, schedule: Q01DX005 (ip), vehicle: saline with Tween-80
# [8] = dose: 120.0 mg/kg/injection, schedule: Q01DX005 (ip), vehicle: saline with Tween-80
# [9] = dose: 240.0 mg/kg/injection, schedule: Q01DX005 (ip), vehicle: saline with Tween-80
smiles,measurement,setting,value
CC(C)=CCC/C(C)=C/COc1ccc(/C=C2/C(=O)N(O)[C@@H](C)C(=O)N2O)cc1,T/C,"dose: 6.25 mg/kg/injection, schedule: Q01DX009 (ip), vehicle: saline",123 % of control and 97 % of control
same,T/C,"dose: 12.5 mg/kg/injection, schedule: Q01DX009 (ip), vehicle: saline",99 % of control
same,T/C,"dose: 25.0 mg/kg/injection, schedule: Q01DX009 (ip), vehicle: saline",108 % of control
CCCNC(c1ccc(N(CC)CC)cc1)C(Cl)(Cl)Cl (configuration not stated),T/C,"dose: 50.0 mg/kg/injection, schedule: Q01DX005 (ip), vehicle: saline",103 % of control
same,T/C,"dose: 100.0 mg/kg/injection, schedule: Q01DX005 (ip), vehicle: saline",106 % of control
same,T/C,"dose: 200.0 mg/kg/injection, schedule: Q01DX005 (ip), vehicle: saline",96 % of control
CC(=O)N1CCc2cc(C(C)C)ccc21,T/C,"dose: 25.0 mg/kg/injection, schedule: Q01DX009 (ip), vehicle: other",97 % of control
same,T/C,"dose: 50.0 mg/kg/injection, schedule: Q01DX009 (ip), vehicle: other",97 % of control
same,T/C,"dose: 100.0 mg/kg/injection, schedule: Q01DX009 (ip), vehicle: other",91 % of control
same,T/C,"dose: 200.0 mg/kg/injection, schedule: Q01DX009 (ip), vehicle: other",103 % of control
same,T/C,"dose: 400.0 mg/kg/injection, schedule: Q01DX009 (ip), vehicle: other",88 % of control
CC(=O)OCC1OC(n2cnc3c(=S)nc[nH]c32)C(OC(C)=O)C1OC(C)=O (configuration not stated),T/C,"dose: 100.0 mg/kg/injection, schedule: Q04DX003 (ip), vehicle: saline with Tween-80",109 % of control
same,T/C,"dose: 200.0 mg/kg/injection, schedule: Q04DX003 (ip), vehicle: saline with Tween-80",109 % of control
same,T/C,"dose: 400.0 mg/kg/injection, schedule: Q04DX003 (ip), vehicle: saline with Tween-80",118 % of control
Cc1ccc2ncc([N+](=O)[O-])n2c1,T/C,"dose: 50.0 mg/kg/injection, schedule: Q01DX001 (ip), vehicle: saline with Tween-80",94 % of control
same,T/C,"dose: 100.0 mg/kg/injection, schedule: Q01DX001 (ip), vehicle: saline with Tween-80",97 % of control
same,T/C,"dose: 200.0 mg/kg/injection, schedule: Q01DX001 (ip), vehicle: saline with Tween-80",90 % of control
same,T/C,"dose: 400.0 mg/kg/injection, schedule: Q01DX001 (ip), vehicle: saline with Tween-80",94 % of control
CC(O)(CO)C(C)(O)c1cn(O)c(=N)c(C(=O)OCc2ccccc2)n1 (configuration not stated),T/C,"dose: 100.0 mg/kg/injection, schedule: Q01DX001 (ip), vehicle: saline",99 % of control
same,T/C,"dose: 200.0 mg/kg/injection, schedule: Q01DX001 (ip), vehicle: saline",95 % of control
same,T/C,"dose: 400.0 mg/kg/injection, schedule: Q01DX001 (ip), vehicle: saline",88 % of control
CC(C)CC(NC(=O)C(NC(=O)C(N)C(C)O)C(C)C)C(=O)O (stereo not drawn) (H-Thr-Val-Leu-OH; configuration not given here),T/C,[1],95 % of control
same,T/C,[2],101 % of control
same,T/C,"dose: 200.0 mg/kg/injection, schedule: Q01DX005 (ip), vehicle: Klucel (hydroxypropylcellulose) (HPC)",104 % of control
O=C(O)/C=C/S(=O)(=O)c1ccc(Cl)cc1,T/C,"dose: 5.0 mg/kg/injection, schedule: Q01DX009 (ip), vehicle: Klucel (hydroxypropylcellulose) (HPC)",89 % of control
same,T/C,"dose: 10.0 mg/kg/injection, schedule: Q01DX009 (ip), vehicle: Klucel (hydroxypropylcellulose) (HPC)",98 % of control
same,T/C,"dose: 20.0 mg/kg/injection, schedule: Q01DX009 (ip), vehicle: Klucel (hydroxypropylcellulose) (HPC)",96 % of control
same,T/C,"dose: 40.0 mg/kg/injection, schedule: Q01DX009 (ip), vehicle: Klucel (hydroxypropylcellulose) (HPC)",99 % of control
Cc1c(C)c(N(CCCl)CCCl)c(C)c2c1OC(C)(CCCC(C)CCCC(C)CCCC(C)C)CC2 (configuration not stated),T/C,[3],113 % of control
same,T/C,"dose: 200.0 mg/kg/injection, schedule: Q04DX002 (ip), vehicle: saline with Tween-80",113 % of control
same,T/C,"dose: 400.0 mg/kg/injection, schedule: Q04DX002 (ip), vehicle: saline with Tween-80",115 % of control
O=C(O)c1ccc(C(=O)N(CCP(c2ccccc2)c2ccccc2)CCP(c2ccccc2)c2ccccc2)cc1C(=O)O,T/C,[4],110 % of control
same,T/C,[5],90 % of control
same,T/C,[6],94 % of control
O=S1(=O)CS(=O)(=O)OCCCO1,T/C,"dose: 6.25 mg/kg/injection, schedule: Q01DX005 (ip), vehicle: Klucel (hydroxypropylcellulose) (HPC)",151 % of control
same,T/C,"dose: 12.5 mg/kg/injection, schedule: Q01DX005 (ip), vehicle: Klucel (hydroxypropylcellulose) (HPC)",169 % of control
[I][Pt+2][I].[NH-]CC[NH-],T/C,"dose: 2.75 mg/kg/injection, schedule: Q01DX009 (ip), vehicle: Klucel (hydroxypropylcellulose) (HPC)",87 % of control
same,T/C,"dose: 5.5 mg/kg/injection, schedule: Q01DX009 (ip), vehicle: Klucel (hydroxypropylcellulose) (HPC)",117 % of control
same,T/C,"dose: 11.0 mg/kg/injection, schedule: Q01DX009 (ip), vehicle: Klucel (hydroxypropylcellulose) (HPC)",109 % of control
same,T/C,"dose: 22.0 mg/kg/injection, schedule: Q01DX009 (ip), vehicle: Klucel (hydroxypropylcellulose) (HPC)",111 % of control
O=C(CCC(=O)Nc1ccccc1[N+](=O)[O-])CC(=O)c1ccc(Br)cc1,T/C,[7],105 % of control
same,T/C,[8],106 % of control
same,T/C,[9],106 % of control
O=C(CC1CCCC/C1=N\O)NO (configuration not stated),T/C,[4],100 % of control
same,T/C,"dose: 100.0 mg/kg/injection, schedule: Q01DX001 (ip), vehicle: Klucel (hydroxypropylcellulose) (HPC)",106 % of control
same,T/C,[5],100 % of control
same,T/C,"dose: 200.0 mg/kg/injection, schedule: Q01DX001 (ip), vehicle: Klucel (hydroxypropylcellulose) (HPC)",112 % of control
same,T/C,[6],117 % of control
same,T/C,"dose: 400.0 mg/kg/injection, schedule: Q01DX001 (ip), vehicle: Klucel (hydroxypropylcellulose) (HPC)",109 % of control
C[C@@H]1C[C@H]2CC[C@H](O2)[C@H](C)C(=O)O[C@@H](C)C[C@@H]2CC[C@@H](O2)[C@@H](C)C(=O)O[C@H](C)C[C@H]2CC[C@H](O2)[C@H](C)C(=O)O[C@@H](C)C[C@@H]2CC[C@@H](O2)[C@@H](C)C(=O)O1,T/C,"dose: 132.0 mg/kg/injection, schedule: Q01DX009 (ip), vehicle: saline with Tween-80",100 % of control
same,T/C,"dose: 200.0 mg/kg/injection, schedule: Q01DX009 (ip), vehicle: saline with Tween-80",104 % of control
same,T/C,"dose: 300.0 mg/kg/injection, schedule: Q01DX009 (ip), vehicle: saline with Tween-80",104 % of control
NC(=S)N/N=C\C(=O)c1ccccc1O,T/C,"dose: 9.4 mg/kg/injection, schedule: Q01DX009 (ip), vehicle: saline with Tween-80",100 % of control (2×) and 101 % of control
same,T/C,"dose: 18.75 mg/kg/injection, schedule: Q01DX009 (ip), vehicle: saline with Tween-80",90 % of control and 95 % of control and 98 % of control
same,T/C,"dose: 75.0 mg/kg/injection, schedule: Q01DX009 (ip), vehicle: saline with Tween-80",99 % of control and 105 % of control
same,T/C,"dose: 150.0 mg/kg/injection, schedule: Q01DX009 (ip), vehicle: saline with Tween-80",103 % of control
COC(=O)/C=C/c1c2ccccc2cc2ccccc12,T/C,[7],96 % of control
same,T/C,[8],96 % of control
same,T/C,[9],90 % of control
O=C1NC(=O)C2(OC3c4ccccc4C=CN3C3=C2C(=O)CCC3)C(=O)N1 (configuration not stated),T/C,"dose: 50.0 mg/kg/injection, schedule: Q01DX005 (ip), vehicle: saline with Tween-80",94 % of control
same,T/C,"dose: 100.0 mg/kg/injection, schedule: Q01DX005 (ip), vehicle: saline with Tween-80",94 % of control
same,T/C,"dose: 200.0 mg/kg/injection, schedule: Q01DX005 (ip), vehicle: saline with Tween-80",92 % of control
NC(=Nc1ccc(Cl)cc1)N/N=C/c1ccc2c(c1)Cc1ccccc1-2,T/C,"dose: 25.0 mg/kg/injection, schedule: Q04DX002 (ip), vehicle: saline with Tween-80",106 % of control
same,T/C,"dose: 50.0 mg/kg/injection, schedule: Q04DX002 (ip), vehicle: saline with Tween-80",106 % of control
same,T/C,[3],107 % of control
CN(C)n1c(O)c(N=O)sc1=S,T/C,[1],96 % of control
same,T/C,[2],95 % of control
CN(C)C1=CC(=Nc2ccccc2)SC(C)(C)C1,T/C,"dose: 15.0 mg/kg/injection, schedule: Q01DX005 (ip), vehicle: saline with Tween-80",100 % of control
same,T/C,"dose: 30.0 mg/kg/injection, schedule: Q01DX005 (ip), vehicle: saline with Tween-80",100 % of control
same,T/C,"dose: 60.0 mg/kg/injection, schedule: Q01DX005 (ip), vehicle: Klucel (hydroxypropylcellulose) (HPC)",100 % of control
same,T/C,[7],99 % of control
CN(N)c1nnnn1-c1ccccc1,T/C,[4],104 % of control
same,T/C,[5],117 % of control
same,T/C,[6],113 % of control
CN1CCC/C1=C/C(=O)c1ccc(Cl)cc1,T/C,"dose: 100.0 mg/kg/injection, schedule: Q04DX003 (ip), vehicle: saline",102 % of control and 98 % of control
same,T/C,"dose: 200.0 mg/kg/injection, schedule: Q04DX003 (ip), vehicle: saline",111 % of control and 120 % of control
same,T/C,"dose: 400.0 mg/kg/injection, schedule: Q04DX003 (ip), vehicle: saline",92 % of control
